# System: KRAS^G12C PDAC cell lines (MIAPaCa-2, XWR200)
# Assay: Long-term clonogenic growth, acquired MAPKi resistance in PDAC cell lines
# Assay type: cell-based, human
# Conditions: combined with MAPKi (type II RAFi+MEKi or KRAS G12Ci+MEKi); FIG. 6A to 6F
# Description: FIGS. 6A-6J. DNA-PKi co-treatment prevents acquired MAPKi-resistance in KRAS^G12 human pancreatic ductal adenocarcinoma and non-small cell lung carcinoma cell lines. FIGS. 6A to 6J: Long-term clonogenic growth of PDAC (MIAPaCa-2, XWR200) (6A to 6F) or NSCLC (H358, H2122) (6G to 6J) cell lines showing acquired-resistant colonies to MEKi alone, type II RAFi+MEKi, or KRAS G12Ci+MEKi and their suppression by indicated co-treatments with DNA-PKi (NU7026) and/or PARPi (ABT888) at indicated concentrations. Top, representative cultures; bottom, quantifications over n=4 fields (mean±SD). Data representative of 2 independent repeats. Seeding densities (cells/well in 6-well dishes) and culture durations: MIAPaCa-2 (10,000; 30 days for 6A-6C), XWR200 (150,000; 23 days for 6D, 30 days for 6E, 26 days for 6F), H358 (40,000; 14 days for 6G, 29 days for 6H, 26 days for 6I), H2122 (20,000, 22 days for 6J). […]
# For clonogenic assay, cells were plated at indicated cell densities in six-well plates and treated with inhibitor(s) the next day. […] Formazan was then dissolved in 100 μL DMSO, and the absorbance values were measured using an ELISA reader (SpectraMax Plus 384) at the wavelength of 570 nm, blanked with DMSO solution. […]
row,Compound,"suppression of acquired MAPKi resistance, number of PDAC cell lines"
1,"C[C@]1(c2nc3c(C(N)=O)cccc3[nH]2)CCCN1 [ABT888, veliparib]",generally ineffective
2,O=c1cc(N2CCOCC2)oc2c1ccc1ccccc12 [NU7026],two of two
